According to patent US9073930B2, “Dipeptidyl peptidase-IV inhibitors for the treatment or prevention of diabetes” (Merck Sharp & Dohme Corp., priority 2012, dated 2015):

Key:
[1] = biological target: T1, dipeptidyl peptidase-IV enzyme (DPP-4) (Homo sapiens, UniProt P27487); assay: Continuous fluorometric DPP-4 inhibition assay with substrate Gly-Pro-AMC; type: biochemical; conditions: soluble human DPP-4, 50 μM Gly-Pro-AMC, pH 7.5, room temperature
T1 construct: soluble (transmembrane domain and cytoplasmic extension excluded) human protein; made in house; host or cells: baculovirus expression system (Bac-To-Bac, Gibco BRL)
T1 sequence (P27487 29-766 limits assumed): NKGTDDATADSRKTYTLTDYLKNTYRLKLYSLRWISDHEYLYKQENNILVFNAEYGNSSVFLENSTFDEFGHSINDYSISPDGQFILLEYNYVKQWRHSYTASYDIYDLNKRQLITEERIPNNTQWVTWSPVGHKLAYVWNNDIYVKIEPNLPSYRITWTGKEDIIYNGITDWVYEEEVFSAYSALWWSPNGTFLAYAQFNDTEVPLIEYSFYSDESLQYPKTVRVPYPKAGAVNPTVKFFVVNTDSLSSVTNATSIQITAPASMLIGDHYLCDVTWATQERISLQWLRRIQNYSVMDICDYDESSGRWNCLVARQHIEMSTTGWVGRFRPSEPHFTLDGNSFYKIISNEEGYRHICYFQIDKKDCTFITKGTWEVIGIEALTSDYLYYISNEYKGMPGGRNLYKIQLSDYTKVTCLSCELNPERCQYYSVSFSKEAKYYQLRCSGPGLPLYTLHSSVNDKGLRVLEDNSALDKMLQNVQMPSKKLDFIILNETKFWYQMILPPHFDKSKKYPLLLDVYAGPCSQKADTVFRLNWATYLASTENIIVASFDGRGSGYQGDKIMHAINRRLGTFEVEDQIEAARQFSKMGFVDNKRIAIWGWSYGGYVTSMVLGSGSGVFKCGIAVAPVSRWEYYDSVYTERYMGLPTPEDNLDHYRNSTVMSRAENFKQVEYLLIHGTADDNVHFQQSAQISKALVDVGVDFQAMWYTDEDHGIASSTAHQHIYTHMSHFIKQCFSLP
Experimental: Inhibition constants are determined as follows. A continuous fluorometric assay is employed with the substrate Gly-Pro-AMC, which is cleaved by DPP-4 to release the fluorescent AMC leaving group. The kinetic parameters that describe this reaction are as follows: Km=50 μM; kcat=75 s^−1; kcat/Km=1.5×10^6 M^−1 s^−1. A typical reaction contains approximately 50 pM enzyme, 50 μM Gly-Pro-AMC, and buffer (100 mM HEPES, pH 7.5, 0.1 mg/ml BSA) in a total reaction volume of 100 μL. Liberation of AMC is monitored continuously in a 96-well plate fluorometer using an excitation wavelength of 360 nm and an emission wavelength of 460 nm. Under these conditions, approximately 0.8 μM AMC is produced in 30 minutes at 25 degrees C. The enzyme used in these studies was soluble (transmembrane domain and cytoplasmic extension excluded) human protein produced in a baculovirus expression system (Bac-To-Bac, Gibco BRL). […] To measure the dissociation constants for compounds, solutions of inhibitor in DMSO were added to reactions containing enzyme and substrate (final DMSO concentration is 1%). All experiments were conducted at room temperature using the standard reaction conditions described above. To determine the dissociation constants (Ki), reaction rates were fit by non-linear regression to the Michaelis-Menton equation for competitive inhibition. […]

hematopoiesis = conditions: mouse model of cyclophosphamide-induced neutropenia; WO 99/56753; cited from earlier work
DPP-4 = DPP-4 (Homo sapiens, UniProt P27487); conditions: cited from earlier work
Sequence of DPP-4 (P27487 whole entry, species assumed): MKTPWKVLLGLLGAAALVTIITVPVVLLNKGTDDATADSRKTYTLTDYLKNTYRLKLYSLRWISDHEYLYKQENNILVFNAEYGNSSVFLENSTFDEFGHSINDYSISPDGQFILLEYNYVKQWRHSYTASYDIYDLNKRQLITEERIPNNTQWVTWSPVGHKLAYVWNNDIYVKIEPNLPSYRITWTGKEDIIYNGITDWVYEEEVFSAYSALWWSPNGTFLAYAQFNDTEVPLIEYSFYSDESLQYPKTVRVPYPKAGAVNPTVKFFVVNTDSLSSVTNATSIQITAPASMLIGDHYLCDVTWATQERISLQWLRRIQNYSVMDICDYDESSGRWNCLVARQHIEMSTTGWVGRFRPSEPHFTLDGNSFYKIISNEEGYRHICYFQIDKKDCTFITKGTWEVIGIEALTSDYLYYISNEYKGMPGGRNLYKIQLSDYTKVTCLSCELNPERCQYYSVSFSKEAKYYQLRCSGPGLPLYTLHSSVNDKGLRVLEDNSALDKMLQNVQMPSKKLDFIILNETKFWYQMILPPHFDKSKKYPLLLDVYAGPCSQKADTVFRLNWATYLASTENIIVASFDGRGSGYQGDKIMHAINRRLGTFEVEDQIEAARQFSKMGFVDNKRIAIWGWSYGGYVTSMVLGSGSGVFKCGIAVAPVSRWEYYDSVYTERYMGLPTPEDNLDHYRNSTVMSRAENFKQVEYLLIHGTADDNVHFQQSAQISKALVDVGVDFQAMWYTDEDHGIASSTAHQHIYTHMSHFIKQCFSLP

IC50 [1] | SMILES | also measured
90 nM | CS(=O)(=O)n1cc2c(n1)CN([C@H]1CO[C@H](c3sccc3F)[C@@H](N)C1)C2 (racemic) [Example 1] | 
100 nM | CS(=O)(=O)n1cc2c(n1)CN([C@H]1CO[C@H](c3cc(F)cnc3F)[C@@H](N)C1)C2 [Example 2] | 
 | CC(C)[C@H](N)C(=O)N1CCC[C@H]1B(O)O [Val-Boro-Pro] | hematopoiesis (hematopoiesis): stimulated hematopoiesis
 | CC[C@H](C)[C@H](N)C(=O)N1CCC[C@H]1C(=O)N[C@H](C(=O)O)[C@@H](C)CC [diprotin A] | degradation of GRF in plasma to GRF[3-44] (DPP-4): prevented
